Results published in patent publication US20230212124A1, “SMALL-MOLECULE INHIBITORS OF THE FRS2-FGFR INTERACTION” (UNIVERSITÄT ZÜRICH, priority 2020, published 2023).

Columns and labels:
[1] = In vitro ADMET: metabolic stability (intrinsic clearance, t½); format: in vitro ADME
Description: (§1) FIG. 16 Table showing the in vitro absorption, distribution, metabolism, elimination and toxicity (ADMET) properties of F3.14.

[2] = In vitro ADMET: semi-thermodynamic solubility; format: physicochemical; conditions: aqueous solutions
Description: as §1

[3] = In vitro ADMET table: potency; format: cell-based
Description: as §1

In vivo pharmacokinetics = conditions: mice, intravenous
Method: 3 Healthy non-SCID mice were intravenously treated with F3.14—Blood samples were collected at 2, 4, 6, 8 and 24 hours after treatment. Serum from the collected blood samples were isolated and the concentration of F3.14 in the serum was measure to determine the intrinsic clearance of F3.14.

FRS2 = target: T1, FRS2 (Homo sapiens, UniProt Q8WU20); experiment: Biophysical binding assays (nanoDSF, MST, NMR); conditions: MST and NMR analysis
T1 construct: 6xHis
T1 sequence (Q8WU20 1-508): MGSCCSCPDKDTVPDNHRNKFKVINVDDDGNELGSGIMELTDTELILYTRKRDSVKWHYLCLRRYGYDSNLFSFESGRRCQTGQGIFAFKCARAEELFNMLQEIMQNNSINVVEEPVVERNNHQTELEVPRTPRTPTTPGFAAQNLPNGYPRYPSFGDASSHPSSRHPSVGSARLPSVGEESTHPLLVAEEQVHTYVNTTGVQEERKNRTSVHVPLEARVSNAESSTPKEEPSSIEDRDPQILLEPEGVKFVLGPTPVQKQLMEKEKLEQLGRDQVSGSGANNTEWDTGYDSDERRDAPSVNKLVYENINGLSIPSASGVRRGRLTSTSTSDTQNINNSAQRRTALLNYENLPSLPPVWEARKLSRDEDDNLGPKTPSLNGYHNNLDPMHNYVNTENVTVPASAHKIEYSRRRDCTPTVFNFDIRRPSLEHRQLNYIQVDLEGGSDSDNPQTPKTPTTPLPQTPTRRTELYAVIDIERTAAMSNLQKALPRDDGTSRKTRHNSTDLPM
Method: Nano Differential Scanning Fluorimetry (nanoDSF)
Purified FRS2 protein tagged with 6× Histidine residues and Guanine nucleotide-binding protein subunit beta (GB1) was diluted in the protein buffer (100 mM sodium phosphate, 50 mM NaCl, 0.5 mM EDTA, 50 mM arginine, 1 mM TCEP, pH 7.0) to final concentration of 30 μM. The compounds were dissolved in 100% at 50 or 100 mM and further diluted to 1 mM with a final concentration of 100% DMSO. Compound and protein were mixed at 1:1 ration yielding final concentrations of 15 μM and 500 μM for the compounds. The mixture was incubated at room temperature for 15 minutes before measurement. The measurement was performed on a Prometheus system in high sensitivity capillaries. Samples were subjected to a temperature gradient of 20 to 95° C. with 1° C./min intervals.
Microscale Thermophoresis (MST)
Purified FRS2 protein tagged with 6× Histidine residues and Guanine nucleotide-binding protein subunit beta (GB1) was labelled with 2nd generation BLUE-NHS dye. The protein was labelled at a final concentration of 20 µM with 60 μM dye. The labelling was performed in the protein buffer without arginine supplementation. Arginine was re-buffered to protein's buffer post-labelling. The compounds were dissolved in 100% at 50 or 100 mM and further diluted to 1 mM with a final concentration of 100% DMSO. […] The interaction was measured in two independent duplicates.

[4] = In vitro ADMET: permeability (efflux ratio); format: in vitro ADME
Description: as §1

[5] = test system: FGFR-driven cancer cell lines; experiment: Spheroid invasion assay; format: cell-based; conditions: all the FGFR-driven cancer cell lines tested
Method: Spheroid Invasion Assay (S/A) and Automated Cell Dissemination Counter (aCDc)
1000 cells/100 μl per well were seeded in cell-repellent 96 well microplate (650790, Greiner Bio-one). The cells were incubated at 37° C. overnight to form spheroids. 70 μl of the medium were removed from each well, and remaining medium with spheroid overlaid with 2.5% bovine collagen 1. Following the polymerization of collagen, fresh medium was added to the cells and treated with growth factors and/or with inhibitors. The cells were allowed to invade the collagen matrix for 24 h, after which they were fixed with 4% PFA and stained with Hoechst. Images were acquired on an Axio Observer 2 mot plus fluorescence microscope (Zeiss, Munic, Germany) using a 5×objective. Cell invasion is determined as the average of the distance invaded by the cells from the centre of the spheroid as determined using automated cell dissemination counter (aCDc) with our cell dissemination counter software aSDlcs (Kumar et al., Sci Rep 5, 15338 (2015)).

[6] = In vitro ADMET: toxicity (MTT); format: cell-based
Description: as §1

FGF signaling pathway = experiment: Immunoblotting / pathway analysis; format: cell-based
Method: (§2) Cancer cells were treated with bFGF (100 ng/ml) and/or with compounds and lysed using Radioimmunoprecipitation assay (RIPA) buffer. RIPA buffer lysates were resolved by SDS-PAGE and transferred to a nitrocellulose membrane using a transfer apparatus according to the manufacturer's instructions (Bio-Rad). Membranes were probed with primary antibodies against phospho-FRS2, FRS2, ERK1/2, phospho-ERK1/2, AKT, phosphor-AKT, phospho-PKC and tubulin. HRP-linked secondary antibodies (1:5000) were used to detect the primary antibodies. Chemiluminescence detection was performed using ChemiDoc Touch Gel and Western Blot imaging system (BioRad).
as §2, with “RIPA” for “Cancer cells were treated with bFGF (100 ng/ml) and/or with compounds and lysed using Radioimmunoprecipitation assay (RIPA) buffer. RIPA”, “buffer FGFR-driven cell” for “buffer”, “phospho-AKT,” for “phosphor-AKT,”, “(BioRad). Integrated density of Immuno-reactive bands was quantified using Adobe Photoshop CS5.” for “(BioRad).”

[7] = test system: FGFR-driven cancer cell lines; experiment: Cell titer glo assay; format: cell-based; conditions: all the FGFR-driven cancer cell lines tested
Method: The metabolic activity and the proliferation of the cells were determined using the Cell Titer glo assay from Promega according to the manufacturer's instructions. In brief, 250 cells/100 μl/per well (for up to 72 h incubation) were seeded in Greiner Bio-One p-clear 384 well plates (655090, Greiner Bio-One) and incubated overnight at 37° C. The old media was then replaced with fresh serum-free media and the cells were treated with BGJ398 or F3.14 till the desired time point. Following appropriate incubation for each timepoint, 10 μl of the Cell titer glo reagent was added to each well (final concentration of cell titer glo reagent per well is 1:10) and incubated at 37° C. for 30 minutes. The luminescence was then measured with a signal integration time of 0.5 to 1 second per well.

CC(C)C[C@@H](CO)NCc1cc(O)c2cc(F)ccc2n1 [Compound F3.14]
intrinsic clearance [1]: moderate | solubility [2]: very good | potency [3]: high | tolerability (In vivo pharmacokinetics): well-tolerated | binding to FRS2 (FRS2): confirmed the binding of F3.14 to FRS2 | permeability [4]: good | inhibition of cancer cell invasion [5]: effectively inhibits | toxicities [6]: very low | effect on FGF signal transduction (phosphorylation of downstream effectors) (FGF signaling pathway): inhibits the FGF signal transduction by inhibiting the phosphorylation of the downstream effectors | inhibition of cancer cell proliferation [7]: effectively inhibits
